The values that follow come from patent US20110287953A1, “METHOD FOR DISCOVERING POTENTIAL DRUGS” (priority 2010, published 2011).

Bounds are passed on as bounds.

In one data set the test system is leukemic cells.
Experiment: not given
The note with it: cited from earlier work.
In the case of `CN1CCN(CCCN2c3ccccc3Sc3ccc(C(F)(F)F)cc32)CC1` [trifluoperazine], the “apoptosis” value was “can induce apoptosis”.

The next data set concerns HCC cell lines, Mahlavu, PLC5, HepG2, and Huh7. The data set is described as follows: MTT cell viability test in HCC cell lines. As to conditions: 72 h. The protocol: (§1) The HCC cell lines, Mahlavu, PLC5, HepG2, and Huh7, were cultured in Dulbecco's Modified Eagle Medium (DMEM; Seromed, Berlin, Germany) supplemented with 10% heat-inactivated fetal bovine serum, 100 μg/ml streptomycin, 100 μg/ml penicillin, and 2 mM L-glutamine in a humidified atmosphere containing 5% CO2 at 37° C. […] The cells were exposed to different concentrations of the small molecules for 72 hours. Control cells were incubated in the absence of small molecules. Afterwards, the cells were incubated with medium containing MTT for 2 hours. […] For the clonogenic assay, Huh7 cells were seeded out in appropriate dilutions in a 6-well plate and treated with selected small molecules at various concentrations for 15 days. Colonies were fixed with glutaraldehyde (6.0% v/v), stained with crystal violet (0.5% w/v), and counted.
In general terms: Formazan colour is commonly taken as a measure of viable cells.
Regarding `CC(COc1ccccc1)N(CCCl)Cc1ccccc1` (centres unmarked) [phenoxybenzamine], the IC50 is over 10 µM.

The same data set, now with this note: 72 h, Table 2-2; HCC cell lines, MTT.
Consider `CN1CCN(CCCN2c3ccccc3Sc3ccc(C(F)(F)F)cc32)CC1` [trifluoperazine], for which the IC50 is over 10 µM.

`O=c1cc(-c2ccc(O)c(O)c2)oc2cc(O)cc(O)c12` [luteolin] displayed an IC50 of over 10 µM.

In the case of `CCOc1cc(CC(=O)N[C@@H](CC(C)C)c2ccccc2N2CCCCC2)ccc1C(=O)O` [Repaglinide], the IC50 was over 10 µM.

`C[C@]12CC[C@@H]3c4ccc(O)cc4CC[C@H]3[C@@H]1CC[C@H]2O` [Alpha-estradiol] gave an IC50 of over 10 µM.

With `CC(=O)[C@H]1CC[C@H]2[C@@H]3C[C@H](C)C4=CC(=O)CC[C@]4(C)[C@H]3[C@@H](O)C[C@]12C` [Medrysone], the IC50 is over 10 µM.

`Nc1nc2nn[nH]c2c(=O)[nH]1` [8-azaguanine] showed an IC50 of over 10 µM.

Staying with this data set, now noted: 72 h, Table 3-1; HCC cell lines, MTT.
Compound `CN1CCN(CCCN2c3ccccc3Sc3ccc(C(F)(F)F)cc32)CC1` [trifluoperazine] registered an IC50 of over 10 µM.

`O=c1cc(-c2ccc(O)c(O)c2)oc2cc(O)cc(O)c12` [luteolin] had an IC50 of over 10 µM.

For the compound `CC(C(O)c1ccc(O)cc1)N1CCC(Cc2ccccc2)CC1` (centres unmarked) [ifenprodil], the IC50 was over 10 µM.

On to `CC[C@H](c1ccc(O)cc1)[C@@H](CC)c1ccc(O)cc1` [hexestrol], for which the IC50 was over 10 µM.

For `Cc1cc(/C=C/c2ccc3cc(N(C)C)ccc3[n+]2C)c(C)n1-c1ccccc1` [pyrvinium], the IC50 lay in the range of 0.1 to 1 µM.

`Nc1nc2nn[nH]c2c(=O)[nH]1` [8-azaguanine] had a half-maximal inhibitory concentration (IC50) of over 10 µM.

In the case of `Clc1ccc(C(OCCN2CCCCC2)c2ccccc2)cc1` (centres unmarked) [cloperastine], the IC50 is over 10 µM.

Staying with this data set, now noted: Table 2-2; HCC cell lines, 72 hours, MTT.
`CC(/C=C/C(=O)NO)=C\[C@@H](C)C(=O)c1ccc(N(C)C)cc1` [trichostatin A] displayed an IC50 of 0.1 to 1 µM.

The same data set, now with this note: Table 3-1; HCC cell lines, 72 hours, MTT.
In the case of `CC(/C=C/C(=O)NO)=C\[C@@H](C)C(=O)c1ccc(N(C)C)cc1` [trichostatin A], the IC50 lay within 0.1 to 1 µM.

The compound `CC(COc1ccccc1)N(CCCl)Cc1ccccc1` (centres unmarked) [phenoxybenzamine] registered an IC50 of over 10 µM.

The subject of a further data set is NPC cell lines, TW01, TW03, TW04, BM1.
Experiment: not given
Settings: not given
Turning to `CN1CCN(CCCN2c3ccccc3Sc3ccc(C(F)(F)F)cc32)CC1` [trifluoperazine], the “cytotoxicity in NPC cell lines” value is on record as “Dose-dependent cytotoxicity”.

As to `CC(/C=C/C(=O)NO)=C\[C@@H](C)C(=O)c1ccc(N(C)C)cc1` [trichostatin A], the “cytotoxicity in NPC cell lines” value is “Dose-dependent cytotoxicity”.

The subject of a further data set is hepatocellular carcinoma or HCC.
Experiment: not given
The note with it: Table 2-3; labels (2) and (3), PubMed references; cited from earlier work.
With `O=C(CCCCCCC(=O)Nc1ccccc1)NO` [vorinostat], the drug efficacy label result is “vorinostat (2)”.

With `CC(C(O)c1ccc(O)cc1)N1CCC(Cc2ccccc2)CC1` (centres unmarked) [ifenprodil], the drug efficacy label entry is listed as “ifenprodil (3)”.

As to `Cc1cc(/C=C/c2ccc3cc(N(C)C)ccc3[n+]2C)c(C)n1-c1ccccc1` [pyrvinium], the drug efficacy label result is recorded as “pyrvinium (3)”.

For `Nc1ccccc1NC(=O)c1ccc(CNC(=O)OCc2cccnc2)cc1` [MS-275], the drug efficacy label result is “MS-275 (2)”.

Another data set deals with HCC cell lines. The data set is described as follows: Drug efficacy label of top 10 CMap drugs (MTT or clonogenic). The note with it: Table 2-3; labels (1) and (4); gene set in which the drug ranked top 10. The format is cell-based. The protocol: as §1
For the compound `CN1CCN(CCCN2c3ccccc3Sc3ccc(C(F)(F)F)cc32)CC1` [trifluoperazine], the drug efficacy label entry is “trifluoperazine (1)”.

With `O=c1cc(-c2ccc(O)c(O)c2)oc2cc(O)cc(O)c12` [luteolin], the drug efficacy label entry is given as “luteolin (4)”.

`CC(/C=C/C(=O)NO)=C\[C@@H](C)C(=O)c1ccc(N(C)C)cc1` [trichostatin A]: the drug efficacy label entry is reported as “trichostatin A (1)”.

`CCOc1cc(CC(=O)N[C@@H](CC(C)C)c2ccccc2N2CCCCC2)ccc1C(=O)O` [Repaglinide]: the drug efficacy label entry is “repaglinide (4)”.

As for `CC[C@H](c1ccc(O)cc1)[C@@H](CC)c1ccc(O)cc1` [hexestrol], the drug efficacy label result was “hexestrol (4)”.

Regarding `C[C@]12CC[C@@H]3c4ccc(O)cc4CC[C@H]3[C@@H]1CC[C@H]2O` [Alpha-estradiol], the drug efficacy label result was “Alpha-estradiol (4)”.

For the compound `CC(=O)[C@H]1CC[C@H]2[C@@H]3C[C@H](C)C4=CC(=O)CC[C@]4(C)[C@H]3[C@@H](O)C[C@]12C` [Medrysone], the drug efficacy label entry is “medrysone (4)”.

For the compound `CC(COc1ccccc1)N(CCCl)Cc1ccccc1` (centres unmarked) [phenoxybenzamine], the drug efficacy label result was “(1) and phenoxybenzamine (1)”.

As to `Nc1nc2nn[nH]c2c(=O)[nH]1` [8-azaguanine], the drug efficacy label was 8-azaguanine (4).

Take `Clc1ccc(C(OCCN2CCCCC2)c2ccccc2)cc1` (centres unmarked) [cloperastine]: the drug efficacy label entry is “cloperastine (4)”.

A further data set deals with B16 melanoma cells.
Experiment: not given
The note with it: cited from earlier work.
Take `CN1CCN(CCCN2c3ccccc3Sc3ccc(C(F)(F)F)cc32)CC1` [trifluoperazine]: the “apoptosis” value is reported as “can induce apoptosis”.

The subject of a further data set is Huh7 cells. As to the kind of experiment: Clonogenic assay. The format is cell-based.
Settings: not given
Regarding `CC(COc1ccccc1)N(CCCl)Cc1ccccc1` (centres unmarked) [phenoxybenzamine], the “growth / survival of Huh7 cells” value is “could inhibit the survival of Huh7 cells”.

The data set is the same for the next values; noted with them: Homo sapiens, Huh-7, 360 h, Table 3-1, 15 days, colony number at 10 μM.
Turning to `CN1CCN(CCCN2c3ccccc3Sc3ccc(C(F)(F)F)cc32)CC1` [trifluoperazine], the inhibition at 10 µM is over 50%.

`O=c1cc(-c2ccc(O)c(O)c2)oc2cc(O)cc(O)c12` [luteolin] showed an inhibition at 10 µM of over 50%.

Compound `CC(COc1ccccc1)N(CCCl)Cc1ccccc1` (centres unmarked) [phenoxybenzamine] had an inhibition at 10 µM of over 50%.

In turn, `Clc1ccc(C(OCCN2CCCCC2)c2ccccc2)cc1` (centres unmarked) [cloperastine] showed an inhibition at 10 µM of over 50%.

The same data set, now with this note: Table 2-2, 15 days, colony number at 10 μM.
Turning to `CN1CCN(CCCN2c3ccccc3Sc3ccc(C(F)(F)F)cc32)CC1` [trifluoperazine], the “Clonogenic assay” value was “Effective (Effectiveness in clonogenic assay is defined as reducing more than 50% colony number at 10 μM)”.

For `O=c1cc(-c2ccc(O)c(O)c2)oc2cc(O)cc(O)c12` [luteolin], the “Clonogenic assay” value was “Ineffective”.

In the case of `CCOc1cc(CC(=O)N[C@@H](CC(C)C)c2ccccc2N2CCCCC2)ccc1C(=O)O` [Repaglinide], the “Clonogenic assay” value is “Ineffective”.

For `C[C@]12CC[C@@H]3c4ccc(O)cc4CC[C@H]3[C@@H]1CC[C@H]2O` [Alpha-estradiol], the “Clonogenic assay” value is “Ineffective”.

On to `CC(=O)[C@H]1CC[C@H]2[C@@H]3C[C@H](C)C4=CC(=O)CC[C@]4(C)[C@H]3[C@@H](O)C[C@]12C` [Medrysone], for which the “Clonogenic assay” value is listed as “Ineffective”.

For the compound `CC(COc1ccccc1)N(CCCl)Cc1ccccc1` (centres unmarked) [phenoxybenzamine], the “Clonogenic assay” value was “Effective (Effectiveness in clonogenic assay is defined as reducing more than 50% colony number at 10 μM)”.

Consider `Nc1nc2nn[nH]c2c(=O)[nH]1` [8-azaguanine], for which the “Clonogenic assay” value is given as “Ineffective”.

The data set is the same for the next values; noted with them: Table 3-1, 15 days, colony number at 10 μM.
As for `CC[C@H](c1ccc(O)cc1)[C@@H](CC)c1ccc(O)cc1` [hexestrol], the Clonogenic assay entry was “Ineffective”.

As to `Nc1nc2nn[nH]c2c(=O)[nH]1` [8-azaguanine], the Clonogenic assay entry is listed as “Ineffective”.

The subject of another data set is Huh-7 cells.
Experiment: not given
The note with it: proliferation of Huh-7 cells, other reports; cited from earlier work.
`O=c1cc(-c2ccc(O)c(O)c2)oc2cc(O)cc(O)c12` [luteolin]: the IC50 is about 50 µM.

What is called IC50 is the concentration at which inhibition is half-maximal. By inhibition is commonly meant the drop in the measured response relative to a control, in per cent. High values mean a strong effect, low ones a weak effect.
